Experimental data taken from patent US20130023501A1, “PHARMACEUTICAL COMPOSITION COMPRISING SOLVENT MIXTURE AND A VITAMIN D DERIVATIVE OR ANALOGUE” (LEO PHARMA A/S, priority 2009, published 2013).

Legend:
[1] = Skin penetration and permeation, Franz diffusion cells; format: in vitro ADME; conditions: addition of menthol to the composition; 21 hours; pig ear skin; FIG. 1
Method: To investigate the skin penetration and permeation of calcipotriol from compositions of the invention, a skin diffusion experiment was conducted. Full thickness skin from pig ears was used in the study. The ears were kept frozen at −18° C. before use. On the day prior to the experiment the ears were placed in a refrigerator (5±3° C.) for slow defrosting. On the day of the experiment, the hairs were removed using a veterinary hair trimmer. The skin was cleaned for subcutaneous fat using a scalpel and two pieces of skin were cut from each ear and mounted on Franz diffusion cells in a balanced order.
Static Franz-type diffusion cells with an available diffusion area of 3.14 cm^2 and receptor volumes ranging from 8.6 to 11.1 ml—were used in substantially the manner described by T. J. Franz, “The finite dose technique as a valid in vitro model for the study of percutaneous absorption in man”, in Current Problems in Dermatology, 1978, J. W. H. Mall (Ed.), Karger, Basel, pp. 58-68. The specific volume was measured and registered for each cell. A magnetic bar was placed in the receptor compartment of each cell. […]
The in vitro skin permeation of each test composition was tested in 6 replicates (i.e. n=6). […] A glass spatula was used for the application, and the residual amount of the composition was determined so as to give the amount of the composition actually applied on the skin. […]

[2] = Amount of MCT required to dissolve calcipotriol in a tested ointment composition; format: physicochemical
[3] = one study, Hannuksela et al. 1975; cited from earlier work

Row | SMILES | skin permeation of calcipotriol [1] | MCT required to completely dissolve calcipotriol [2] | number of irritant reactions to propylene glycol [3] [%]
1 | C=C1/C(=C\C=C2/CCC[C@]3(C)[C@@H]([C@H](C)/C=C/[C@@H](O)C4CC4)CC[C@@H]23)C[C@@H](O)C[C@@H]1O [calcipotriol, Calcipotriol] | significant increase | about 50% | –
2 | CC(O)CO (stereo not drawn) [propylene glycol] | – | – | 12.5
